Patent publication US20150291645A1, “ISOACTEOSIDE DERIVATIVE AND USE THEREOF” (Sinphar Pharmaceutical Co., Ltd., priority 2014, published 2015)

Legend:
[1] = tested on: Aβ40 degrading enzyme activity in Neuro-2a conditioned medium; test: Aβ40 degradation in Neuro-2a conditioned medium (Human Aβ1-40 immunoassay); assay type: biochemical, mouse; details: 50 μM and 100 μM, 24 hours 37° C., FIG. 5
Method: Experimental method: 2×10^7 of mouse neuroblastoma cells (Neuro-2a) were placed on a T175 culture medium, and after overnight, the T175 culture medium was replaced with 30 mL of a chemical-defined medium incubating for 24 hours. After 24 hours, the chemical-defined medium incubated with the cells, which was called a conditioned medium, was centrifuged for 5 minutes at 13,000 rpm, and supernatant liquid was obtained. 10 ng of Aβ40 and testing medicine were added to 300 μL of the conditioned medium, and the mixture was reacted at 37° C. for 24 hours. Immunoassay kits (Human Aβ1-40 Immunoassay kits, Cat.KHB3482, Life Technologies) were used to measure the remaining amount of Aβ in each reaction to examine whether the medicine can improve the activity for enzyme in the medium to degrade Aβ. One not adding any testing medicine (i.e. only containing 10 ng of Aβ40) was a control, and the measured level of Aβ was set to 100%. The levels of Aβ after treated by the testing medicine were compared to the control and expressed in percentage. […] The statistical differences between the control and the testing samples were analyzed by Dunnett's multiple comparison test, which “*” represented p<0.05; “**” represented p<0.01; “***” represented p<0.001; and “****” represented p<0.0001.

[2] = tested on: β-amyloid peptides (Aβ); details: position of the caffeoyl group (sixth vs fourth), WO 2011/157059 A1; cited from earlier work

Structure (SMILES)	extracellular Aβ40 degradation [1]	activity of inhibiting β-amyloid peptides (Aβ) accumulation [2]
O=C(/C=C/c1ccc(O)c(O)c1)OCC1OC(OCCc2ccc(O)c(O)c2)C(O)C(O)C1O (centres unmarked) [Sample 9]	could effectively improve extracellular Aβ40 degradation	–
C[C@@H]1O[C@@H](O[C@@H]2[C@@H](O)[C@H](OCCc3ccc(O)c(O)c3)O[C@H](COC(=O)/C=C/c3ccc(O)c(O)c3)[C@H]2O)[C@H](O)[C@H](O)[C@H]1O [isoacteoside]	–	better
